“Also recorded” adds a separate entry of the source.
Experiments:
caspase 3 = assay: Caspase-3 activation assay (PE Active Caspase-3 Apoptosis Kit, flow cytometry); assay type: cell-based, human; set-up: number of caspase-3-positive cells: dose or concentration left out as unconfirmed; details: PLL cells; for number of cells with active form of caspase 3: 48 h drug exposure, 15 μM
Description: Caspase 3 is a main effector caspase which is involved in apoptosis process realization (Miura M., Zhu H., Otello R., Hartwieg E.A., Yuan J. 1993. Induction of apoptosis in fibroblasts by IL-1 beta-converting enzyme, a mammalian homolog of the C. elegans cell death gene ced-3, Cell, 75, 653-660). […] Our analysis, conducted after 48 h drug exposure, confirmed that in PLL cells a high antileukemic potential of adenosine modified at C-2 position with boron cluster is related to apoptosis induction. The number of cells with active form of the enzyme raised after the exposure to compound 3 from 9.4% and 10.6% in control and vehicle control (DMSO), respectively, to 28.5%. Similar effect (20,1%) was observed after the incubation of PLL cells with cladribine at concentration of 15 μM which recursively exceeds its level in serum of patients during antileukemic therapy. […] Of note, compound 5 affected PLL cells weaker than compound 3 which was confirmed by caspase 3 activation in 16.1% of leukemic cells.
The percent of leukemic PBMCs with active form of caspase-3 was measured cytometrically by PE Active Caspase-3 Apoptosis Kit, BD Pharmingen according to manufacturer's protocol. The analyses were conducted after 48 h incubation with/without (control) the agents or DMSO (vehicle control). BD LSR II flow cytometer was used and the analyses were performed using FACSDiva Version 6.1.2 software (see results in FIG. 2).

PLL cells = assay: Viability and apoptosis induction in PLL PBMCs (Membrane Permeability/Dead Cell Apoptosis Kit); assay type: cell-based, human; details: 15 μM, 1 case of PLL, very preliminary data
Description: The 15 μM concentration of the used agents, as safe for normal PBMCs, was selected for further analyses with regard to their apoptosis-inducing potential. The viability and apoptosis induction were examined in cell samples obtained from peripheral blood of 6 patients with leukemia (5 cases of CLL and 1 case of PLL). […] It is worth noting that the agents differed in their apoptosis inducing potential in PLL cells.
Firstly, it was analyzed by propidium iodide staining. Then, Membrane Permeability/Dead Cell Apoptosis Kit (Molecular Probes, Invitrogen™) was used to examine the contribution of apoptosis to cell death induction after exposure to the used agents. The analyses were performed on BD LSR II flow cytometry using FACSDiva Version 6.1.2 software. Ten thousand events were examined for each analysis. The distinction between living (YO-PRO-negative/propidium iodide-negative), early apoptotic (YO-PRO-positive/propidium iodide-negative) and dead (YO-PRO-positive/propiodium iodide-positive) cells was based on the differences in their permeability for fluorescent dyes. The results are shown as the percent of viable and early apoptotic cells in gated PBM cell population, respectively.
For further analyses the concentration of 15 μM of all tested agents was chosen. […]

[1] = system: PARP-1, Bax, Bcl-2, Mcl-1; assay: Western blot analysis of apoptosis-related proteins in CLL and PLL cells; assay type: cell-based, human; details: 15 μM; for expression level of Bcl-2 in comparison to vehicle control: PBMC samples from Patient 2, 48 h
Description: The expression of apoptosis-related proteins was assessed in CLL and PLL cells exposed to the tested agents. All examined adenosine derivatives triggered proteolysis of PARP-1 full length protein (116 kDa) to its cleavage product (89 kDa), which is a known marker of apoptosis. Moreover, altered expression of pro-apoptotic (Bax) and anti-apoptotic proteins (Mcl-1, Bcl-2) from Bcl-2 family was also observed in purine derivative-treated leukemic cells. However, there were some individual differences between basal levels of these apoptotic regulators in model cells, as well as the changes in their cellular levels after the agent exposure were diverse. For instance, there were no significant alterations in Bax/Bcl-2 ratio in cell samples obtained from exemplary patient 1 exposed to the novel nucleosides.
Control PBMCs (without the agents), as well as the cells samples exposed to DMSO (vehicle control) and the tested agents were lysed (4° C., 1 h) in a buffer containing 10 mM Tris-HCl (pH 7.5), 300 mM NaCl, 1% Triton X-100, 2 mM MgCl2, 0.1 M DTT, and protease inhibitors as described previously (A., Kobylinska, J., Bednarek, J. Z., Blonski, M., Hanausek, Z., Walaszek, H., Piekarski, T., Robak, Z. M., Kilianska. 2006. In vitro sensitivity of B-cell chronic lymphocytic leukemia to cladribine and its combinations with mafosfamide and/or mitoxantrone, Oncol. Rep., 16, 1389-1395). Protein content was estimated according to Lowry method (O. H., Lowry, N. J., Rosebrough, A. L., Farr, R. J., Randall. 1951. Protein measurement with the Folin phenol reagent. J. Biol. Chem., 193, 265-275) and the cell lysates were prepared for subsequent Western blotting analysis. Protein samples (60 μg/lane) were separated by SDS polyacrylamide gel electrophoresis (SDS-PAGE) on 8.0 or 12.5% slab gels and electrotransfered onto Immobilon P (H., Towbin, T., Staechlin, J., Gordon, 1979, Electrophoretic transfer of protein from polyacrylamide gels to nitrocellulose sheets: procedure and some applications. Proc. Natl. Acad. Sci. USA, 76, 4350-4354). Membrane staining with 0.5% Ponceau S solution was done to confirm equal protein loading and completeness of the transfer. The membranes were saturated in 5.0% skim milk in TBS (10 mM Tris-HC1, pH 7.5, 150 mM NaC1) for 1 h at ambient temperature, and then incubated overnight with antibodies specific to Mcl -1 (1:1000), Bcl-2 (1:1000), Bax (1:1000), PARP-1 (1:1000), all from Santa Cruz Biotechnology Inc. Antigen recognition was performed with appropriate secondary antibodies conjugated with horseradish peroxidase. The antigen-antibodies complexes were detected with Novex HRP Chromogenic substrate (TMB) from Invitrogen or, alternatively, by chemiluminescence method (see results in FIG. 3).

CLL cells = assay: Cytotoxicity in leukemic PBMCs from CLL patients; assay type: cell-based; details: 24 and 48 h
Description: (§1) During the first stage, the cytotoxicity analysis of compounds according to the present invention introduced into the culture medium in increasing concentrations (from 0 μM to 60 μM) against leukemic and healthy peripheral blood mononuclear cells (PBMCs). The goal of this stage was to select the optimal concentrations which would be useful for the further comparative analysis of novel compound with conventional chemotherapeutics, i.e. cladribine and fludarabine, in terms of their antileukemic efficacy. The cytotoxicity of compounds was evaluated in PBMCs isolated from the blood of 5 patients with CLL, 1 with PLL and 5 healthy donors after 24 and 48 h. of incubation. Cell survival was evaluated cytometrically using propidium iodide staining using the Membrane Permeability/Dead Cell Apoptosis assay (propidium iodide+YO-PRO). […] FIG. 1a represents the survival of healthy cells treated with compounds according to the present invention at increasing concentrationsand evaluated using the Membrane Permeability/Dead Cell Apoptosis assay.
(§2) PBMC cells were isolated from peripheral blood using centrifugation via a Histopaque gradient according to the manufacturer's instructions. […] The cytotoxicity was assessed cytometrically after 24 and 48 h incubation.
(§3) Firstly, it was analyzed by propidium iodide staining. […]

normal PBMCs = assay: Cytotoxicity in normal PBMCs (propidium iodide; Membrane Permeability/Dead Cell Apoptosis Kit); assay type: cell-based, human; details: normal PBMCs from healthy donors, 24 and 48 h
Description: as §1, §2, §3

Compound	number of cells with active form of caspase 3 (caspase 3)	anti-leukemic (apoptosis inducing) potential against PLL cells (PLL cells)	expression level of Bcl-2 in comparison to vehicle control [1]	cytotoxicity / anti-leukemic potential against CLL cells (CLL cells)	cytotoxicity against normal PBMCs (normal PBMCs)	Bax expression level ([1]; cells from patient 1, 48 h)	Bcl-2 protein level ([1]; cells from patient 1, 48 h)	number of caspase-3-positive cells (caspase 3; 48 h) [%]
Nc1nc(F)nc2c1ncn2[C@@H]1O[C@H](CO)[C@@H](O)[C@@H]1O [fludarabine]	11.8%	–	–	–	–	–	–	–
2-ethynyl-(1,12-dicarba-closo-dodecaboran-2-yl)adenosine [compound 3]	28.5%	very potent against PLL cells; also recorded: even higher than that of cladribine and fludarabine	clear decrease	smaller anti-leukemic potential against CLL cells than compound 5	less cytotoxic against normal PBMCs; also recorded: lower than fludarabine	–	–	–
8-ethynyl-(1,12-dicarba-closo-dodecaboran-2-yl-2′-deoxyadenosine [compound 5]	16.1%	–	clear decrease	more cytotoxic in comparison to compound 3	–	–	–	–
Nc1nc(Cl)nc2c1ncn2[C@H]1C[C@H](O)[C@@H](CO)O1 [cladribine, reference compound]	20,1%	–	–	–	–	essential increase	diminution	11.8

— US20170216340A1, “A Nucleoside Derivative For Use As A Drug, Particularly For The Treatment Of Chronic Lymphocytic Leukemia” (INSTYTUT BIOLOGII MEDYCZNEJ POLSKIEJ AKADEMII NAUK, priority 2014, published 2017)
